Results: ChEMBL document CHEMBL1154198, “Chemical genetics of Plasmodium falciparum” (Nature, 2010)
pEC50: −log10 of the molar value.

What was measured:
Plasmodium falciparum [1] = experiment: ST_JUDE: Plasmodium falciparum K1 EC50 (uM) as measured by SYBR green dye; format: functional, organism-based
Plasmodium falciparum [2] = experiment: ST_JUDE: Plasmodium falciparum 3D7 EC50 (uM) as measured by SYBR green dye; format: functional, organism-based

SMILES: COc1ccc(Nc2cc(C)nc(Nc3ccc(NS(=O)(=O)c4cccc(F)c4)cc3)n2)cc1
- pEC50 (Plasmodium falciparum [1]): 5.14
- pEC50 (Plasmodium falciparum [2]): 5.69

SMILES: CCN(CC)CCNC(=O)CCc1nnc2n(Cc3ccc(Cl)cc3)c(=O)c3ccccc3n12
- pEC50 (Plasmodium falciparum [1]): < 4.82
- pEC50 (Plasmodium falciparum [2]): < 4.82

SMILES: C[n+]1ccccc1/C=C1\Sc2ccccc2N1CCO
- pEC50 (Plasmodium falciparum [1]): 5.51
- pEC50 (Plasmodium falciparum [2]): 5.26

SMILES: COc1ccccc1/C=C/C(=O)Nc1ccc(Cl)c(C(F)(F)F)c1
- pEC50 (Plasmodium falciparum [1]): < 4.82
- pEC50 (Plasmodium falciparum [2]): < 4.82

SMILES: CC(C)c1ccc(CN(Cc2ccco2)C(=O)COc2ccccc2Cl)cc1
- pEC50 (Plasmodium falciparum [1]): < 4.82
- pEC50 (Plasmodium falciparum [2]): 5.13

SMILES: CC(C)(C)CC(C)(C)NCC(O)COc1ccc2c(c1)CCC2 (stereo unspecified)
- pEC50 (Plasmodium falciparum [1]): 5.91
- pEC50 (Plasmodium falciparum [2]): 5.35

SMILES: COc1cc(/C=C2/C(=O)NC(=O)N(c3ccc(Cl)cc3)C2=O)cc(Br)c1OC
- pEC50 (Plasmodium falciparum [1]): < 4.82
- pEC50 (Plasmodium falciparum [2]): < 4.82

SMILES: CC(=O)N(C1=C(N2CCCCC2)C(=O)c2ccccc2C1=O)c1ccc(C)cc1
- pEC50 (Plasmodium falciparum [1]): 5.35
- pEC50 (Plasmodium falciparum [2]): 5.13

SMILES: COc1ccc2nc(N(Cc3cccnc3)C(=O)CCc3ccccc3)sc2c1
- pEC50 (Plasmodium falciparum [1]): 5.45
- pEC50 (Plasmodium falciparum [2]): < 4.82

SMILES: Cc1cc(N2CCN(C)CC2)nc2ccc(NC(=S)NCCCN3CCc4ccccc4C3)cc12
- pEC50 (Plasmodium falciparum [1]): 5.18
- pEC50 (Plasmodium falciparum [2]): 5.83

SMILES: CCCCc1ccc(NC(=O)Cc2csc(NC(=O)c3cc(OC)cc(OC)c3)n2)cc1
- pEC50 (Plasmodium falciparum [1]): < 4.82
- pEC50 (Plasmodium falciparum [2]): < 4.82

SMILES: CCCOC(=O)c1ccc(NC(=O)NC2CCCCC2)cc1
- pEC50 (Plasmodium falciparum [1]): < 4.82
- pEC50 (Plasmodium falciparum [2]): < 4.82

SMILES: CCCCC(O)(c1ccc(OC)cc1)C(CN1CCCCC1)c1ccccc1 (stereo unspecified)
- pEC50 (Plasmodium falciparum [1]): 5.56
- pEC50 (Plasmodium falciparum [2]): 5.34

SMILES: CCN1/C(=C/c2cccc[n+]2C)Sc2ccccc21
- pEC50 (Plasmodium falciparum [1]): < 4.82
- pEC50 (Plasmodium falciparum [2]): 5.35

SMILES: COc1ccc(CCNC(=S)Nc2cc(Cl)ccc2Cl)cc1OC
- pEC50 (Plasmodium falciparum [1]): 5.53
- pEC50 (Plasmodium falciparum [2]): 5.47

SMILES: Cc1cc(O)nc2nnc(SCC(=O)Nc3cccc(Cl)c3)n12
- pEC50 (Plasmodium falciparum [1]): 5.14
- pEC50 (Plasmodium falciparum [2]): < 4.82

SMILES: COc1cccc(C2=C(C(C)=O)Sc3nncn3N2C(C)=O)c1
- pEC50 (Plasmodium falciparum [1]): 5.46
- pEC50 (Plasmodium falciparum [2]): 5.52

SMILES: Cc1cc(N2CCN(C)CC2)nc2ccc(NC(=O)/C=C/c3ccccc3OC(C)C)cc12
- pEC50 (Plasmodium falciparum [1]): 5.25
- pEC50 (Plasmodium falciparum [2]): 5.47

SMILES: CCCC(=O)n1nc(-c2ccc(Cl)cc2)nc1NCc1ccc(OC)cc1
- pEC50 (Plasmodium falciparum [1]): < 4.82
- pEC50 (Plasmodium falciparum [2]): < 4.82

SMILES: COc1ccc(CN2CCN(Cc3cc(Br)ccc3O)CC2)cc1OC
- pEC50 (Plasmodium falciparum [1]): 5.20
- pEC50 (Plasmodium falciparum [2]): 5.31

SMILES: C=CCOC(=O)C1=C(C)N=C2CCCC(O)=C2C1c1ccc(OCC)c(OC)c1 (stereo unspecified)
- pEC50 (Plasmodium falciparum [1]): 5.28
- pEC50 (Plasmodium falciparum [2]): < 4.82

SMILES: COC(=O)c1ccc(Nc2nc(NCc3ccco3)c3ccccc3n2)cc1
- pEC50 (Plasmodium falciparum [1]): 5.07
- pEC50 (Plasmodium falciparum [2]): 5.31

SMILES: COc1ccc(OC)c(C2CC(=O)C3=C(C2)NC(=O)CC3c2ccc([N+](=O)[O-])cc2)c1 (stereo unspecified)
- pEC50 (Plasmodium falciparum [1]): 5.82
- pEC50 (Plasmodium falciparum [2]): < 4.82

SMILES: CCCOc1cc(O)c(-c2[nH]nc(C)c2Oc2ccccc2)cc1CC
- pEC50 (Plasmodium falciparum [1]): 5.68
- pEC50 (Plasmodium falciparum [2]): 5.42

SMILES: CCN(CC)CC(O)COc1ccccc1C(=O)CCc1ccccc1 (stereo unspecified)
- pEC50 (Plasmodium falciparum [1]): 5.97
- pEC50 (Plasmodium falciparum [2]): 5.66

SMILES: Cc1ccc(C(C)(C)C)c(OCCCCn2ccnc2)c1
- pEC50 (Plasmodium falciparum [1]): 5.25
- pEC50 (Plasmodium falciparum [2]): 5.18

SMILES: CCOc1ccc(Nc2cc(C)nc(-n3nc(C)cc3C)n2)cc1
- pEC50 (Plasmodium falciparum [1]): 5.30
- pEC50 (Plasmodium falciparum [2]): 5.30

SMILES: OCCC1CN(Cc2c(F)cccc2F)CCN1Cc1ccc(F)cc1 (stereo unspecified)
- pEC50 (Plasmodium falciparum [1]): < 4.82
- pEC50 (Plasmodium falciparum [2]): < 4.82

SMILES: COCCN1CCC(CN(Cc2ccncc2)Cc2ccc(CC(C)C)cc2)CC1
- pEC50 (Plasmodium falciparum [1]): 5.28
- pEC50 (Plasmodium falciparum [2]): 5.17

SMILES: Cc1cccc(C(=O)NCc2nnc(S)n2-c2cccc(C(F)(F)F)c2)c1
- pEC50 (Plasmodium falciparum [1]): < 4.82
- pEC50 (Plasmodium falciparum [2]): < 4.82

SMILES: CC(=O)Oc1ccc2ccccc2c1C(NC(=O)C(C)C)c1ccc(Cl)cc1 (stereo unspecified)
- pEC50 (Plasmodium falciparum [1]): 5.35
- pEC50 (Plasmodium falciparum [2]): 5.39

SMILES: CCCCOC(=O)c1c(N)n(-c2ccccc2OC)c2nc3ccccc3nc12
- pEC50 (Plasmodium falciparum [1]): < 4.82
- pEC50 (Plasmodium falciparum [2]): 5.42

SMILES: Cc1cccc(NC(c2ccc(F)cc2)c2ccc3cccnc3c2O)n1 (stereo unspecified)
- pEC50 (Plasmodium falciparum [1]): 5.38
- pEC50 (Plasmodium falciparum [2]): 5.82

SMILES: Cc1cccc(NS(=O)(=O)c2cc3c4c(c2)CCN4C(=O)CC3)c1
- pEC50 (Plasmodium falciparum [1]): < 4.82
- pEC50 (Plasmodium falciparum [2]): < 4.82

SMILES: CSc1cccc(NC(=O)Cn2c(C)c(C=O)c3ccccc32)c1
- pEC50 (Plasmodium falciparum [1]): 5.37
- pEC50 (Plasmodium falciparum [2]): 5.34

SMILES: CCOC(=O)C1=C(C)N=c2s/c(=C\c3ccc(O)c(OC)c3)c(=O)n2C1c1ccc(F)cc1 (stereo unspecified)
- pEC50 (Plasmodium falciparum [1]): 5.65
- pEC50 (Plasmodium falciparum [2]): < 4.82

SMILES: CCOC(=O)C1=CN(Cc2ccc(F)cc2)C=C(C(=O)OCC)C1c1cc(OC)c(OC)c(OC)c1
- pEC50 (Plasmodium falciparum [1]): 6.28
- pEC50 (Plasmodium falciparum [2]): < 4.82

SMILES: CCOC(=O)C1=C(C)N=c2s/c(=C\c3cc(Cl)ccc3O)c(=O)n2C1c1ccc(Cl)cc1 (stereo unspecified)
- pEC50 (Plasmodium falciparum [1]): < 4.82
- pEC50 (Plasmodium falciparum [2]): < 4.82

SMILES: CCOC(=O)CCc1c(C)c2cc3c(c(C)c2oc1=O)OCN(Cc1ccccc1OC)C3
- pEC50 (Plasmodium falciparum [1]): 5.91
- pEC50 (Plasmodium falciparum [2]): 5.52

SMILES: CCOC(=O)C1=C(c2ccccc2)N=c2s/c(=C\c3cccc(O)c3)c(=O)n2C1c1cccc(OC)c1OC (stereo unspecified)
- pEC50 (Plasmodium falciparum [1]): 5.66
- pEC50 (Plasmodium falciparum [2]): 5.49

SMILES: O=C(O)/C=C1\SC(=O)NC1=O
- pEC50 (Plasmodium falciparum [1]): < 4.82
- pEC50 (Plasmodium falciparum [2]): < 4.82

SMILES: COCCN1C(=O)c2ccccc2C(C(=O)Nc2ccc(F)c(Cl)c2)C1c1cccs1 (stereo unspecified)
- pEC50 (Plasmodium falciparum [1]): 5.58
- pEC50 (Plasmodium falciparum [2]): 5.59

SMILES: O=C(Nc1ccc(Cl)cc1C(=O)Nc1cccc(C(F)(F)F)c1)c1ccco1
- pEC50 (Plasmodium falciparum [1]): < 4.82
- pEC50 (Plasmodium falciparum [2]): < 4.82
